Measured values: patent US20230211362A1, “A METHOD OF COATING AN OCULAR PROSTHETIC DEVICE AND OTHER PROSTHETICS” (UEA Enterprises Limited, priority 2020, published 2023)
Counter-ions that a name gives are not always drawn.

Assays:
[1] = cited from earlier work
[2] = In vitro drug release tests of nanoelectrosprayed contact lenses in PBS 7.4 under sink conditions, HPLC (Example 4); format: physicochemical; details: zein film on contact lens (BIM1); 2 ml PBS 7.4, 35° C., 125 rpm; FIG. 32 bottom
Description: Glass vials containing 2 ml PBS 7.4 was incubated in a shaking incubator set at 35° C. with 125 rpm for 2 hours before in vitro experiments. All in vitro experiments were performed under sink conditions (i.e., the drug concentration within the in vitro dissolution medium was more than 10 times diluted in comparison to the saturated solubility of the drug in the medium). The nanoelectrosprayed lenses were placed into the vial and an aliquot of 1.5 ml was replaced with fresh PBS at regular intervals up to 24 hours (for KF the intervals were 0.5, 1, 3, 6, and 24 hours; for BIM the intervals were 0.25, 0.5, 0.75, 1, 2, 3, 4, 5, 6, and 24 hours). […] The total amount of ketotifen and bimatoprost sprayed on a contact lens was determined by the sum of the cumulative amount of the drug released during the in vitro study and the amount obtained from extraction.
The high-performance liquid chromatography system (Jasco, Japan) consists of a pump (PU-1580), an autosampler (AS-2055 Plus) and a 4-channel UV detector (UV-1570M). A Waters C18 column (250×4.6 mm i.d.; 5 μm particle size) was used under ambient conditions. The mobile phase of ketotifen fumarate and bimatoprost was prepared according to a method adopted from the literature. The mobile phase for ketotifen comprised methanol and 0.2% triethylamine (v/v) (80:20), running with 1 ml/min flow rate. […]

bimatoprost release after 6 hours [2] | bimatoprost released in the first 30 minutes [2] | Compound | Log P [1] | pKa (acid) [1] | solubility in aqueous solutions ([1]; slightly soluble in aqueous solutions)
 |  | CN1CCC(=C2c3ccccc3CC(=O)c3sccc32)CC1 [Ketotifen fumarate] | 3.4 | 12.3 | 7.87 µg/mL
98% | 51% | CCNC(=O)CCC/C=C\C[C@@H]1[C@@H](/C=C/[C@@H](O)CCc2ccccc2)[C@H](O)C[C@@H]1O [bimatoprost] |  |  | 
